Measurements published in publication PMC6235002, “Born to sense: biophysical analyses of the oxygen sensing prolyl hydroxylase from the simplest animal Trichoplax adhaerens” (Hypoxia, 2018).
“Also recorded” adds a separate entry of the source. Where two headings read alike, the source gives them in different places.

Key:
TaPHD^64-300 [1] = molecular target: T1, TaPHD^64-300 (Trichoplax adhaerens, UniProt I6QVT6); settings: TaPHD with natural substrate (500 µM); 20 µM enzyme, 125 µM Fe(II), 1 mM ascorbate, 400 µM 2OG, 50 mM Tris-D11 pH 7.5; ^1H NMR
HsPHD2 = settings: read-out: Km (O2); cited from earlier work
TaPHD^64-300 [2] = molecular target: T1, TaPHD^64-300; assay: Steady-state O2-dependence of TaPHD (MALDI-TOF-MS); assay type: biochemical; settings: TaPHD^64-300 with TaODD 25mer
Protocol: (§1) Notes: (A) Sequence alignment of TaHIFa, HsHIFa, and substrates of PHD-like enzymes in Dictyostelium discoideum (DdSkp1) and Pseudomonas putida (PpEF-Tu). […] Peptide hydroxylation was analyzed by MALDI-MS; the apparent non-enzymatic Met oxidation was subtracted. Data were fitted with the Michaelis-Menten equation using GraphPad Prism® (errors are indicated as standard deviations, n=3).
In order for the PHDs to act as hypoxia sensors in cells, their activity must be limited by oxygen availability. […] In order to study the O2 dependence of the TaPHD-catalyzed reaction, steady-state kinetics, using reported experimental conditions for HsPHD2;[29] were conducted. TaPHD^64-300 was reacted with its peptidic substrate in sealed glass-vials under varied oxygen concentrations,[29] the initial rates of TaODD 25mer hydroxylation were determined by MALDI–TOF-MS (Figure 2F and G).

TaPHD^64-300 [3] = molecular target: T1, TaPHD^64-300; settings: relative to TaODD 25mer and CODD 19mer; cited from earlier work
Text: The HIF system in T. adhaerens is apparently markedly simpler than in humans because it contains only one PHD (TaPHD), and one HIFα isoform with a single ODD (TaODD, Figure 1A).[16] […] To further investigate the substrate preferences of TaPHD^64–300, its affini ...

TaPHD^64-300 [4] = molecular target: T1, TaPHD^64-300; assay: MALDI-TOF-MS peptide hydroxylation steady-state kinetics, TaPHD^64-300; assay type: biochemical; settings: for Km / kcat (peptide substrate): peptide varied, 3.5–7.0 µM enzyme, 50 µM (NH4)2Fe(II)(SO4)2, 4 mM ascorbate, 300 µM 2OG; for Km: 50 mM Tris pH 7.5, Michaelis-Menten fit, ± SD, n=3, read-out: Km (peptide substrate); for kcat (peptide substrate): 50 mM Tris pH 7.5, ± SD, n=3
Protocol: as §1

HsPHD2 R396T = HsPHD2 R396T variant; Figure S4, reference not given; cited from earlier work
Text: (§2) In both the TaPHD.TaODD and HsPHD2.CODD[34] structures, a salt-bridge between an arginine residue in the C-terminal α4-helix and an aspartate residue in the C-terminus of the respective peptide (R292TaPHD/D494TaODD, R396HsPHD2/D571HsHIF1α CODD) is formed (Figure S4). However, this salt-bridge is not present in the HsPHD2.NODD complex structure, where the HsHIF1α NODD peptide is positioned further from the C-terminal helix and interacts with the C-terminal region of HsPHD2 via hydrophobic contacts. Studies with the TaODD and HsPHD2 variants, including with HsPHD2 P317RHsPHD2 and R396THsPHD2, wh ...

HsPHD2^181-426 [5] = molecular target: T2, HsPHD2^181-426 (Homo sapiens, UniProt Q9GZT9); assay: MALDI-TOF-MS peptide hydroxylation steady-state kinetics, HsPHD2^181-426; assay type: biochemical; settings: peptide varied, 3.5–7.0 µM enzyme, 50 µM (NH4)2Fe(II)(SO4)2, 4 mM ascorbate, 300 µM 2OG; for Km: 50 mM Tris pH 7.5, Michaelis-Menten fit, ± SD, n=3, read-out: Km (peptide substrate); for kcat (peptide substrate): 50 mM Tris pH 7.5, ± SD, n=3
T2 construct: compared to the truncated human PHD isoform 2 (HsPHD2^181-426)
Protocol: as §1

HsPHD2^181-426 [6] = molecular target: T2, HsPHD2^181-426; set-up: method as in PMID 25120187; settings: previous studies, read-out: Km (peptide substrate), previous studies; cited from earlier work
TaPHD^64-300 [7] = molecular target: T1, TaPHD^64-300; assay: 1D CLIP HSQC NMR binding studies with [^13C]-prolyl-labelled reporter ODD peptides; settings: 1:1 enzyme:ODD, 50 µM [^13C]-proline-labelled peptide, 50 µM TaPHD, Zn(II), 50 µM 2OG, 50 mM Tris-D11 pH 7.5, 10% D2O/90% H2O, n=3
Protocol: as §1
To more directly investigate the extent to which TaPHD^64-300 can bind HsHIF1α NODD and CODD, we performed 1D CLIP HSQC NMR binding studies with HsHIF1α CODD and HsHIF1α NODD peptides labeled with [^13C] at the target prolyl residues which undergo hydroxylation during catalysis (Figure 2C).

HsPHD2 P317R = HsPHD2 P317R variant; Figure S4, reference not given; cited from earlier work
Text: as §2

[8] = substrate: O=C(O)CCC(=O)C(=O)O; assay: MALDI-TOF-MS peptide hydroxylation steady-state kinetics, TaPHD^64-300; assay type: biochemical, Trichoplax adhaerens; settings: other: TaPHD^64-300, 2OG varied, 100 µM peptide, 50 µM (NH4)2Fe(II)(SO4)2, 4 mM ascorbate, 50 mM Tris pH 7.5, ± SD, n=3, 37.0 °C

T2 sequence (Q9GZT9 181-426): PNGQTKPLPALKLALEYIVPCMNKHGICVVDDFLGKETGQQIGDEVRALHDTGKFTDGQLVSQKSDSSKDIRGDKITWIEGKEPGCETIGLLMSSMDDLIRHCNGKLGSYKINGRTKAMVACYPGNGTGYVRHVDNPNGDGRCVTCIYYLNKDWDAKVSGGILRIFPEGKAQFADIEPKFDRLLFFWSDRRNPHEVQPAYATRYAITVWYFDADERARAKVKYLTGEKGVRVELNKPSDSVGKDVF

Row | Molecule | hydroxylation by TaPHD (in words) (TaPHD^64-300 [4]) | Km (HsPHD2^181-426 [5]) [µM] | kcat (peptide substrate) (HsPHD2^181-426 [5]) [s⁻¹] | Km (TaPHD^64-300 [4]) [µM] | kcat (peptide substrate) (TaPHD^64-300 [4]) [s⁻¹] | also measured
1 | O=C(O)CCC(=O)C(=O)O [2OG, 2-oxoglutarate] | – | – | – | – | – | 2OG decarboxylation in presence of substrate (TaPHD^64-300 [1]): strongly increased in presence of substrate
2 | O=O [O2, oxygen] | – | – | – | – | – | Km (HsPHD2): > 400 µM; Km (TaPHD^64-300 [2]; 4 µM enzyme, 100 µM TaODD, 50 µM Fe(II), 300 µM 2OG, 4 mM ascorbate, 50 mM Tris pH 7.5, 37°C, varied % O2, n=3): > 400 µM; O2 saturation (in words) (TaPHD^64-300 [2]; at 60% O2 level, 37°C, pH 7.5): No saturation of O2 was reached
3 | DALTLLAPAAGDTIISLDF-NH2 [HsHIF1α NODD 19mer, 19mer peptide of the human HIF1α N-terminal ODD] | not turned over above background level | – | – | – | – | hydroxylation by TaPHD, earlier report (in words) (TaPHD^64-300 [3]): hydroxylated less efficiently; ODD selectivity of HsPHD2 R396T (in words) (HsPHD2 R396T): NODD
4 | DLDLEMLAPYIPMDDDFQL-NH2 [HsHIF1α CODD 19mer, 19mer peptide of the human HIF1α C-terminal ODD] | efficiently catalyzes the hydroxylation | 10.8 ± 1.9 | 0.027 ± 0.001 | 15.1 ± 2.2 | 0.012 ± 0.001 | Km (HsPHD2^181-426 [6]): 9 ± 3 µM; binding to TaPHD (in words) (TaPHD^64-300 [7]): higher binding affinity of TaPHD for HsHIF1α CODD over NODD; also recorded: apparently completely bound; ODD selectivity of HsPHD2 P317R (in words) (HsPHD2 P317R): selective for CODD
5 | PINEKEDYDDLAPFVPPPSFDNRLY-NH2 [TaODD 25mer, 25mer peptide of the single ODD of T. adhaerens HIFα, natural substrate of TaPHD] | efficiently catalyzes the hydroxylation | 40.5 ± 4.9 | 0.035 ± 0.002 | 11.5 ± 1.8 | 0.026 ± 0.001 | –
6 | TaPHD^64-300 (Trichoplax adhaerens) (protein) MDERRPKIGCDKTGLALEKTWQLQKNERLSNMVVNQLNTNGFCIINNFLGSSCSTEVLQQVLNLYQSGVFSNGQLARNVSVNRIRGDKIAWIGGDERGCEAIKYLSSCVDSLISRCNGRLGNYMITGRTKCMVACYPGSGLGYIRHIDNPNRDGRCVTVLYYLNPNWNSQDCGGQLWLYPNNENKVVKIDPIFDRLLLFWSDRRNPHEVKPAYAMRYAITLWYFDEKERALSSQNGT | – | – | – | – | – | Km [8]: 1.9 ± 0.3 µM
